Measurements from patent publication US20100062986A1, “METHOD TO TREAT BLOOD CELL DEPLETION” (ImmuneRegen Biosciences, Inc., priority 2006, published 2010).

Test system: mice exposed to a lethal dose of 60Co radiation
Assay: Radilex treatment of mice after lethal 60Co radiation exposure (survival, blood counts)
Assay type: in vivo, mice (C57BL/6J)
Description: One purpose of the study is to determine the effects of Radilex™ ([Sar^9, Met(02)^11]-Substance P) after exposure to a lethal dose of ^60Co radiation exposure. Another purpose of the study is to determine if intra-muscular injections of Radilex™ can be as effective as aerosol inhalation of Radilex™ at 8Gy ^60Co radiation level.
Blood draws (2 animals per group rotating every 5 days) for erythrocytes, leukocytes and platelets were taken to assess anemia, neutropenia and thrombocytopenia. Counts of erythrocytes, leukocytes and platelets were taken to assess anemia, neutropenia and thrombocytopenia and act as indicators of bone marrow damage and/or immune system destruction.
The mice received Radilex™ treatment within 2 hours of radiation exposure. The Radilex™ dosage was administered in a volume of 0.01 ml in a daily single treatment via IM injection into the hind limb muscle a single time, for the duration of the study (30 days), or until death.
The following regimens were tested on groups of 9-11 mice:
10 mM Radilex™ single intramuscular treatment
1 mM Radilex™ single intramuscular treatment
1 mM Radilex™ daily intramuscular treatment
75 uM Radilex™ single intramuscular treatment
75 uM Radilex™ daily intramuscular treatment
10 uM Radilex™ daily via nebulizer
50 uM Radilex™ daily via nebulizer
75 uM Radilex™ daily via nebulizer
100 uM Radilex™ daily via nebulizer […]

In the case of “[Sar^9, Met(02)^11]-Substance P [Radilex™]”, the “Radioprotection: effects of lethal exposure” value (mice, lethal 60Co radiation, Radilex intramuscular or via nebulizer, first treatment within 2 hours of exposure) is reported as “Reversed” and the Neutropenia and anemia (surviving animals after 60Co radiation, white cell count and hematocrit) is reported as “Reversed”.
